Measured values from patent US20050059585A1, “Methionine aminopeptidase-2 inhibitors and methods of use thereof” (Praecis Pharmaceuticals Inc., priority 2000, published 2005).
Where two headings read alike, the source gives them in different places. Square brackets hold non-standard residues; d marks the D form. Peptide text beside a SMILES is read from it. * marks the point of attachment. X2 = CO[C@@H]1[C@H](OC(=O)*)CC[C@]2(CO2)[C@H]1[C@@]1(C)O[C@@H]1CC=C(C)C; X3 = CO[C@@H]1[C@H](OC(=O)*)CC[C@]2(CO2)[C@H]1[C@@]1(C)O[C@@H]1CCC(C)C; Sar = CNCC(=O)O

What was measured:
[1] = tested on: human umbilical vein endothelial cells (HUVEC); test: human endothelial cell growth assay (Huvec assay); format: cell-based
Description: For the human endothelial cell growth assay, human umbilical vein endothelial cells (HUVEC) were maintained in Clonetics endothelial growth medium (EGM) in a 37° C. humidified incubator. Cells were detached with trypsin and pelleted by centrifugation at 300×g for 5 minutes at room temperature. HUVEC were added to 96-well plates at 5,000 cells/well. After incubating for 6 hours, the medium was replaced with 0.2 ml fresh EGM supplemented with 0.5 nM bFGF and the desired concentration of test angiogenesis inhibitor compound. Test angiogenesis inhibitor compounds were initially dissolved in ethanol at stock concentrations of either 10 mM or 0.1 mM, and subsequently diluted in EGM to obtain concentrations from […] to 10 μM. After 48 hours at 37° C., the medium was replaced with fresh bFGF-supplemented EGM and test angiogenesis inhibitor compound. Following incubation for an additional 48 hours at 37° C. MTT (3-[4,5-dimethylthiazol-2-yl]-2,5-diphenyl-tetrazolium bromide) was added to 1 mg/ml. After 2-4 hours at 37° C. the medium was replaced with 0.1 ml/well isopropanol. The plates were placed on a shaker for 15 minutes at room temperature and analyzed in a Labsystems Multiskan plate spectrophotometer at an optical density of 570 nm.

[2] = tested on: bovine aortic endothelial cell; test: bovine aortic endothelial cell growth assay (Baec assay); format: cell-based
Description: The angiogenesis inhibitor compounds of the invention were tested for their ability to modulate human endothelial cell growth and for their ability to modulate the activity of MetAP2. The MetAP2 enzyme assay was performed essentially as described in Turk, B. et al. (1999) Chem. & Bio. 6: 823-833, the entire contents of which are incorporated herein by reference. The bovine aortic endothelial cell growth assay (Baec assay) was performed essentially as described in Turk, B. et al. (supra), the entire contents of which are incorporated herein by reference.

MetAP2 = molecular target: T1, MetAP2 (Homo sapiens, UniProt P50579); test: MetAP2 enzyme assay; format: biochemical
T1 construct: made in house; host or cells: insect cells
Description: Finally, the ability of the angiogenesis inhibitor compounds of the invention to modulate the activity of MetAP2 may be tested as follows.. Recombinant human MetAP2 may be expressed and purified from insect cells as described in Li and Chang, (1996) Biochem. Biophys. Res. Commun. 227:152-159. Various amounts of angiogenesis inhibitor compound is then added to buffer H (10 mM Hepes, pH 7.35, 100 mM KCl, 10% glycerol, and […]) containing lnM purified recombinant human MetAP2 and incubated at 37° C. for 30 minutes. To start the enzymatic reaction a peptide containing a methionine residue, e.g., Met-Gly-Met, is added to the reaction mixture (to a concentration of 1 mM). Released methionine is subsequently quantified at different time points (e.g., at 0, 2, 3, and 5 minutes) using the method of Zou et al. (1995) Mol. Gen Genetics 246:247-253).
The angiogenesis inhibitor compounds of the invention were tested for their ability to modulate human endothelial cell growth and for their ability to modulate the activity of MetAP2. The MetAP2 enzyme assay was performed essentially as described in Turk, B. et al. (1999) Chem. & Bio. 6: 823-833, the entire contents of which are incorporated herein by reference. […]

[3] = Homo sapiens, HUVEC, read-out: IC50 (pM), Huvec Assay
[4] = Bos taurus, BAEC, read-out: IC50 (pM), Baec Assay

T1 sequence (P50579 whole entry): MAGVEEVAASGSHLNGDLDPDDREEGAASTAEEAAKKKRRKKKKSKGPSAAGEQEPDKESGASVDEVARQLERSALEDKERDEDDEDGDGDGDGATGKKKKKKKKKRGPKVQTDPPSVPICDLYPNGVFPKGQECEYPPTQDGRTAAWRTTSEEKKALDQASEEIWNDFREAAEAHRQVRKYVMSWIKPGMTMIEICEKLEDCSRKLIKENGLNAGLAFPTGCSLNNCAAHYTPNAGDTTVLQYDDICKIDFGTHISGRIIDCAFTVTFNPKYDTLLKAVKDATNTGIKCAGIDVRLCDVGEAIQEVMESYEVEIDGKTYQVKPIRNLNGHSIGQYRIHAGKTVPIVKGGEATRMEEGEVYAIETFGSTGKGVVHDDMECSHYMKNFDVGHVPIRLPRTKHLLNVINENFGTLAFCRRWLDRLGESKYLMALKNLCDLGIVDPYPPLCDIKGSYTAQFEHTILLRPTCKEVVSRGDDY

| Structure (SMILES) | IC50 [2, 4] | IC50 ([1]; read-out: IC50, Huvec Assay) | other results |
| --- | --- | --- | --- |
| COC(=O)[C@H](NC(=O)O[C@@H]1CC[C@]2(CO2)[C@@H]([C@@]2(C)O[C@@H]2CC=C(C)C)[C@@H]1OC)c1ccccc1 [Example 4, {(3R, 4S, 5S, 6R)-5-Methoxy-4-[(2R, 3R )-2-methyl-3-(3-methyl-but-2-enyl)-oxiranyl]-1-oxa-spiro[2.5]oct-6-yloxycarbonylamino}-phenyl-acetic acid methyl ester] | 35 pM |  | IC50 [1, 3]: 36 pM |
| CO[C@@H]1[C@H](OC(=O)N[C@@H](C(N)=O)C(C)C)CC[C@]2(CO2)[C@H]1[C@@]1(C)O[C@@H]1CCC(C)C [Example 6, (1-Carbamoyl-2-methyl-propyl)-carbamic acid-(3R, 4S, 5S, 6R )-5-methoxy-4-[(2R, 3R)-2-methyl-3-(3-methyl-butyl)-oxiranyl]-1-oxa-spiro[2.5]oct-6-yl ester] | 220 pM |  |  |
| COC(=O)[C@H](NC(=O)O[C@@H]1CC[C@]2(CO2)[C@@H]([C@@]2(C)O[C@@H]2CC=C(C)C)[C@@H]1OC)C(C)(C)C [Example 8, 2-{(3R, 4S, 5S, 6R )-5-Methoxy-4-[(2R, 3R)-2-methyl-3-(3-methyl-but-2-enyl)-oxiranyl]-1-oxa-spiro[2.5]oct-6-yloxycarbonylamino}-3,3-dimethyl-butyric acid methyl ester] | 313 pM |  |  |
| COC(=O)[C@H](NC(=O)O[C@@H]1CC[C@]2(CO2)[C@@H]([C@@]2(C)O[C@@H]2CC=C(C)C)[C@@H]1OC)C1CCCCC1 [Example 9, Cyclohexyl-2-{(3R, 4S, 5S, 6R )-5-Methoxy-4-[(2R, 3R)-2-methyl-3-(3-methyl-but-2-enyl)-oxiranyl]-1-oxa-spiro[2.5]oct-6-yloxycarbonylamino}-acetic acid methyl ester] | 165 pM |  |  |
| CCC(C)C(NC(=O)O[C@@H]1CC[C@]2(CO2)[C@@H]([C@@]2(C)O[C@@H]2CC=C(C)C)[C@@H]1OC)C(=O)OC (some centres unmarked) [Example 10] | 179 pM |  |  |
| CO[C@@H]1[C@H](OC(=O)N[C@@H](C(=O)N[C@@H](CO)C(N)=O)C(C)C)CC[C@]2(CO2)[C@H]1[C@@]1(C)O[C@@H]1CC=C(C)C [Example 11] |  |  | IC50 ([2]; Bos taurus, BAEC, read-out: IC50, Baec Assay): > 100000 pM |
| CO[C@@H]1[C@H](OC(=O)NCC(=O)N[C@@H](CCCNC(=N)N)C(=O)NC[C@@H](O)N[C@@H](CC(=O)O)C(=O)N[C@@H](CO)C(=O)N2CCCC2C(N)=O)CC[C@]2(CO2)[C@H]1[C@@]1(C)O[C@@H]1CC=C(C)C (some centres unmarked) [Example 13] |  | > 1e+07 pM | IC50 (MetAP2): 2.9 nM |
| CO[C@@H]1[C@H](OC(=O)NCC(=O)N[C@@H](CCCNC(=N)N)C(=O)NCC(=O)N[C@@H](CC(=O)O)C(N)=O)CC[C@]2(CO2)[C@H]1[C@@]1(C)O[C@@H]1CCC(C)C [Example 15] (X3-GRGD-NH2) |  | > 1e+07 pM |  |
| CO[C@@H]1[C@H](OC(=O)NCC(=O)N2CCC[C@H]2C(=O)N[C@@H](CC(C)C)C(=O)N(C)CC(=O)O)CC[C@]2(CO2)[C@H]1[C@@]1(C)O[C@@H]1CC=C(C)C [Example 18, N-Carbamoyl (ID#26) (3R, 4S, 5S, 6R) 5-methoxy-4-[(2R,3R)2-methyl-3-(3methyl-but-2-enyl)-oxiranyl]-1-oxa-spiro[2.5]oct-6-yl ester] (X2-GPL[Sar]-OH) |  | > 100000 pM |  |
| CO[C@@H]1[C@H](OC(=O)NCC(=O)N2CCC[C@H]2C(=O)N[C@@H](CC(C)C)C(=O)NCC(=O)O)CC[C@]2(CO2)[C@H]1[C@@]1(C)O[C@@H]1CC=C(C)C [Example 19, N-Carbamoyl (ID#27) (3R, 4S, 5S, 6R) 5-methoxy-4-[(2R,3R)2-methyl-3-(3-methyl-but-2-enyl)-oxiranyl]-1-oxa-spiro [2.5]oct-6-yl ester] (X2-GPLG-OH) |  | > 100000 pM | IC50 ([2]; read-out: IC50, Baec Assay): > 100000 pM |
| CO[C@@H]1[C@H](OC(=O)N[C@@H](C(=O)O)C(C)C)CC[C@]2(CO2)[C@H]1[C@@]1(C)O[C@@H]1CC=C(C)C [Example 24, 2-{(3R, 4S, 5S, 6R)-5-Methoxy-4-[(2R, 3R)-2-methyl-3-(3-methyl-but-2-enyl)-oxiranyl]-1-oxa-spiro[2.5]oct-6-yloxycarbonylamino}-3-methyl-butyric acid] |  |  | IC50 [1, 3]: 5440 pM |
